The supplement of paper PMC4862054

What was measured:
Test in all cases: normalised response (% of control), CellTiter-Glo; higher = more viable cells (100 = DMSO, 0 = benzethonium chloride kill control)
Conditions in all cases: incubation time: 72 h
BT-474 = tested on: BT-474
Summary of the method: (§1)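 Breast cancer cell lines, seeded at 20 µl suspension per well, were incubated for 72 h in 384-well plates containing compound at 5 concentrations. These concentrations rose in 10-fold steps over a 10,000-fold range set for each compound. CellTox Green fluorescence (485/520 nm) was read, then CellTiter-Glo luminescence after 10 min at room temperature, and each plate was normalised to 0.1 % DMSO (100) and a positive kill control (0). Values are normalised signals, each at one concentration.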

BT-549 = tested on: BT-549
Summary of the method: as §1

CAL-120 = tested on: CAL-120
Summary of the method: as §1

CAL-148 = tested on: CAL-148
Summary of the method: as §1

CAL-51 = tested on: CAL-51
Summary of the method: as §1

CAL-85-1 = tested on: CAL-85-1
Summary of the method: as §1

DU-4475 = tested on: DU-4475
Summary of the method: as §1

HCC1143 = tested on: HCC1143
Summary of the method: as §1

HCC1937 = tested on: HCC1937
Summary of the method: as §1

HDQ-P1 = tested on: HDQ-P1
Summary of the method: as §1

Hs578T = tested on: Hs578T
Summary of the method: as §1

MCF-10A = tested on: MCF-10A
Summary of the method: as §1

MDA-MB-231 = tested on: MDA-MB-231
Summary of the method: as §1

MDA-MB-436 = tested on: MDA-MB-436
Summary of the method: as §1

MDA-MB-453 = tested on: MDA-MB-453
Summary of the method: as §1

MDA-MB-468 = tested on: MDA-MB-468
Summary of the method: as §1

MFM-223 = tested on: MFM-223
Summary of the method: as §1

SK-BR-3 = tested on: SK-BR-3
Summary of the method: as §1

SMILES	normalised response (BT-474) [%]	normalised response (BT-549) [%]	normalised response (CAL-120) [%]	normalised response (CAL-148) [%]	normalised response (CAL-51) [%]	normalised response (CAL-85-1) [%]	normalised response (DU-4475) [%]	normalised response (HCC1143) [%]	normalised response (HCC1937) [%]	normalised response (HDQ-P1) [%]	normalised response (Hs578T) [%]	normalised response (MCF-10A) [%]	normalised response (MDA-MB-231) [%]	normalised response (MDA-MB-436) [%]	normalised response (MDA-MB-453) [%]	normalised response (MDA-MB-468) [%]	normalised response (MFM-223) [%]	normalised response (SK-BR-3) [%]
COc1cc(Nc2c(C#N)cnc3cc(OCCCN4CCN(C)CC4)c(OC)cc23)c(Cl)cc1Cl [Bosutinib] (10000 nM)	2.86	15.6	43.4	33.3	25	0.33	70	46.6	5.6	9.28	48.5	1.72	0.86	5.63	6.11	1.43	41.2	1.81
Nc1ccn([C@@H]2O[C@H](CO)[C@@H](O)C2(F)F)c(=O)n1 [Gemcitabine] (1000 nM)	74.2	44.7	73	51	34	40.5	78.5	38.9	85.8	82.8	74.9	65.8	79.5	30.7	74.5	22.1	97.7	42.7
Cc1cn(-c2cc(NC(=O)c3ccc(C)c(Nc4nccc(-c5cccnc5)n4)c3)cc(C(F)(F)F)c2)cn1 [Nilotinib] (10000 nM)	94.7	61.2	103	98	86.3	104	102	93	96.8	105	97.1	99.4	92.9	106	102	101	97.2	99.4
CC1(C)CCC(c2ccc(Cl)cc2)=C(CN2CCN(c3ccc(C(=O)NS(=O)(=O)c4ccc(N[C@H](CCN5CCOCC5)CSc5ccccc5)c(S(=O)(=O)C(F)(F)F)c4)cc3)CC2)C1 [Navitoclax] (10000 nM)	23.5	86.7	37.4	72.4	74.5	86.2	72.4	77.8	56.9	66.8	79.3	92.5	16.1	90.7	60.3	78	55.6	73.2
CCNC(=O)c1noc(-c2cc(C(C)C)c(O)cc2O)c1-c1ccc(CN2CCOCC2)cc1 [NVP-AUY922] (1000 nM)	25.6	39.8	47.9	29.3	13.5	21	-0.14	38	28.3	23.6	35.6	16.7	24.9	50.9	26.3	22.6	36.3	39.4
COc1ccc(S(=O)(=O)Nc2cccnc2Nc2ccc(O)cc2)cc1 [ABT-751] (10000 nM)	53.8	40.3	61.1	41.2	25.2	40.9	43.6	55.5	71.3	70.1	17.6	59.8	46.6	26.8	50.9	29.2	38.4	12.3
CC(=O)[C@]1(O)Cc2c(O)c3c(c(O)c2[C@@H](O[C@H]2C[C@H](N)[C@H](O)[C@H](C)O2)C1)C(=O)c1ccccc1C3=O [Idarubicin] (1000 nM)	16.6	6.26	30	0.6	0.98	3.35	0.36	16.6	30.1	39	13.1	27.3	24.7	20.6	31.2	5.57	9.33	7.62
Cn1cc(C2=C(c3cn(C4CCN(Cc5ccccn5)CC4)c4ccccc34)C(=O)NC2=O)c2ccccc21 [Enzastaurin] (10000 nM)	96	61.2	91.1	107	82.1	85.1	105	96.5	101	70.1	91	87.5	102	101	101	82.9	103	85.6
CC(O)(CS(=O)(=O)c1ccc(F)cc1)C(=O)Nc1ccc(C#N)c(C(F)(F)F)c1 (configuration not stated) [Bicalutamide] (10000 nM)	108	94.2	105	107	92.8	101	98.4	104	93.8	96.4	95.6	107	106	114	88.5	109	101	103
